# Target: T1, human MRGPR X4 (Homo sapiens, UniProt Q96LA9)
# T1 construct: expressed in transfected cells
# Test: MRGPR X4 antagonist activity, IP-One Gq HTRF assay in stably transfected HEK cells
# Assay type: cell-based
# Conditions: not given
# Outline: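 IC50 comes from HTRF IP-1 accumulation in stably transfected HEK cells expressing human MRGPR X4. Compounds (10 uM top, 1:3 serial, 10 points) were co-incubated with 10 μM bilirubin, 20 μM deoxycholic acid or 100 μM conjugated bilirubin in LiCl-containing buffer, pH 8, for 1 h at 37 °C plus 30 min at room temperature.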
# T1 sequence (Q96LA9 whole entry): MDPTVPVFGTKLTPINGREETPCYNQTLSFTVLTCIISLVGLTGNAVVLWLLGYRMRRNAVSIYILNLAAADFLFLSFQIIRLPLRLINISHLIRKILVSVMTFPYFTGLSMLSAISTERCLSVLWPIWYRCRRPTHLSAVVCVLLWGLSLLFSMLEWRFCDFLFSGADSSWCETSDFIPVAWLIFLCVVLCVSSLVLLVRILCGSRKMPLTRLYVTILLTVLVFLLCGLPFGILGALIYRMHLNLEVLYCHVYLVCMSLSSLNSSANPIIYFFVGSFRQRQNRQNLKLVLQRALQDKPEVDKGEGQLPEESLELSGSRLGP
row,SMILES,IC50
1,CC(C)(C)c1cnc(Cn2nc(C(=O)NCCc3nnc4ccccn34)c3ccccc32)o1 [Compound 415],501 to 1000 nM
2,O=C(NCc1cnc2ccccc2c1)c1nn(Cc2ccc(Cl)cc2)c2ccccc12 [Compound 370],> 2500 nM
3,Cn1ccc(CNC(=O)c2nn(Cc3ccc(Cl)cc3)c3ccccc23)n1 [Compound 354],> 2500 nM
4,O=C(NCCc1nnc2ccccn12)c1nn(Cc2ccc(Cl)cc2)c2c(Cl)cccc12 [Compound 539],< 100 nM
5,Cc1cccc2c(CCNC(=O)c3nn(Cc4ccc(Cl)cc4)c4ccccc34)c[nH]c12 [Compound 341],> 2500 nM
6,O=C(NCCc1cccc(O)c1)c1nn(Cc2ccc(Cl)cc2)c2ccccc12 [Compound 9],< 100 nM
7,O=C(NCCc1nc2ccccc2[nH]1)c1nn(Cc2ccc(Cl)cc2)c2ccccc12 [Compound 357],< 100 nM
8,COc1cc(Cl)ccc1Cn1nc(C(=O)NCCc2nnc3n2CCCCC3)c2ccccc21 [Compound 64],100 to 500 nM
9,CC(c1ccc(Cl)cc1)n1nc(C(=O)NCCc2nnc3n2CCCCC3)c2ccccc21 (stereo not drawn) [Compound 74],501 to 1000 nM
10,COc1ccc(CCNC(=O)c2cn(Cc3ccc(Cl)cc3)c3ccccc23)cn1 [Compound 168],100 to 500 nM
11,O=C(NCCc1nnc2ccccn12)c1nn(Cc2nc(C3CCC3)no2)c2ccccc12 [Compound 511],100 to 500 nM
12,Cc1cccc(CCNC(=O)c2nn(Cc3ccc(Cl)cc3)c3ccccc23)n1 [Compound 55],100 to 500 nM
13,O=C(NCCc1ccncc1)c1nn(Cc2ccc(Cl)cc2)c2ccccc12 [Compound 31],100 to 500 nM
14,Cc1ccc(Cn2nc(C(=O)NCCc3ccc[nH]3)c3ccccc32)cc1 [Compound 104],1000 to 2500 nM
15,Cc1noc(CCNC(=O)c2nn(Cc3ccc(Cl)cc3)c3ccccc23)n1 [Compound 420],1000 to 2500 nM
16,CC(=O)c1cccc(Cn2cc(C(=O)NCCc3cccnc3)c3ccccc32)c1 [Compound 232],> 2500 nM
17,O=C(NCCc1nnc2ccccn12)c1nn(Cc2cccc3c2CCC3)c2ccccc12 [Compound 545],100 to 500 nM
18,O=C(NCCCc1ccncc1)c1nn(Cc2ccc(Cl)cc2)c2ccccc12 [Compound 355],> 2500 nM
19,Cc1ccccc1CCNC(=O)c1nn(Cc2ccc(Cl)cc2)c2ccccc12 [Compound 363],> 2500 nM
20,O=C(NCCc1cccnc1)c1nn(Cc2ccc(Cl)cc2)c2ccccc12 [Compound 19],< 100 nM
21,O=C(NCCc1cccnc1C(F)(F)F)c1cn(Cc2ccc(Cl)cc2)c2ccccc12 [Compound 189],501 to 1000 nM
22,O=C(NCCc1ccccn1)c1nn(Cc2ccc(Cl)cc2)c2ccccc12 [Compound 23],< 100 nM
23,CN(C)c1cccc(Cn2nc(C(=O)NCCc3nnc4ccccn34)c3ccccc32)c1 [Compound 451],100 to 500 nM
24,O=C(O)c1nn(Cc2ccc(Cl)cc2)c2ccccc12 [Compound 319],1000 to 2500 nM
25,O=C(NCCc1nnc2ccccn12)c1nn(Cc2ccc(Cl)cc2)c2cccc(F)c12 [Compound 15],< 100 nM
26,COc1ccc(Cn2nc(C(=O)NCCc3cccnc3)c3ccccc32)cc1 [Compound 66],100 to 500 nM

# Same assay, conditions: versus 20 μM deoxycholic acid agonist; HEK cells expressing human MRGPR X4; read-out: MRGPRX4 Antagonist Activity
row,SMILES,IC50
1,Cc1ccccc1NC(=O)CS(=O)(=O)c1cn(Cc2ccc(Cl)cc2)c2ccccc12 [Compound 255],> 2500 nM
2,Cc1cccc(S(=O)(=O)NC(=O)c2nn(Cc3ccccc3C#N)c3ccccc23)c1 [Compound 260],501 to 1000 nM
3,Cc1cccc(S(=O)(=O)NC(=O)c2cn(Cc3ccc(OC(F)F)cc3)c3ccccc23)c1 [Compound 313],> 2500 nM
4,Cc1ccc(NC(=O)CS(=O)(=O)c2cn(Cc3ccc(Cl)cc3)c3ccccc23)cc1 [Compound 247],1000 to 2500 nM
5,Cc1cccc(S(=O)(=O)NC(=O)c2nn(Cc3ccc(C(F)(F)F)cc3Cl)c3ccccc23)c1 [Compound 306],> 2500 nM
6,Cc1cc(S(=O)(=O)NC(=O)c2nn(Cc3ccc(OC(F)F)cc3)c3ccccc23)ccc1C#N [Compound 259],100 to 500 nM
7,Cc1cccc(S(=O)(=O)NC(=O)c2nn(Cc3ccc(C#N)cc3)c3ccccc23)c1 [Compound 273],1000 to 2500 nM
